We go through three molecules from patent US8415475B2, “Antibacterial quinoline derivatives” (Janssen Pharmaceutica N.V., priority 2006, dated 2013).

Data set [1] has as its system Staphylococcus aureus (ATCC29213). As to the kind of experiment: In-vitro anti-bacterial microtitre plate assay, IC90, S. aureus. It is filed as cell-based. To be noted: 90% inhibitory concentration for bacterial growth, resazurin fluorescence; for IC90 values STA 1 B29213: 24 hours. The protocol:
(§1) D.3. In-Vitro Method for Testing Compounds for Anti-Bacterial Activity Against Various Non-Mycobacterial Strains The bacteria used in this study were grown overnight in flasks containing 100 ml Mueller-Hinton Broth (Becton Dickinson-cat. no. 275730) in sterile de-ionized water, with shaking, at 37° C. Stocks (0.5 ml/tube) were stored at -70° C. until use. Bacteria titrations were performed in microtiter plates to detect the TCID50, in which the TCID50 represents the dilution that gives rise to bacterial growth in 50% of inoculated cultures. In general, an inoculum level of approximately 100 TCID50 was used for susceptibility testing. Flat-bottom, sterile 96-well plastic microtiter plates were filled with 180 μl of sterile deionized water, supplemented with 0.25% BSA. Subsequently, stock solutions (7.8× final test concentration) of compounds were added in 45 μl volumes in column 2. Serial five-fold dilutions (45 μl in 180 μl) were made directly in the microtiter plates from column 2 to reach column 11. Untreated control samples with (column 1) and without (column 12) inoculum were included in each microtiter plate. Depending on the bacteria type, approximately 10 to 60 CFU per well of bacteria inoculum (100 TCID50), in a volume of 100 μl in 2.8× Mueller-Hinton broth medium, was added to the rows […]. The same volume of broth medium without inoculum was added to column 12 in row A to H. The cultures were incubated at 37° C. for 24 hours under a normal atmosphere (incubator with open air valve and continuous ventilation). At the end of incubation, one day after inoculation, the bacterial growth was quantitated fluorometrically. Therefore resazurin (0.6 mg/ml) was added in a volume of 20 μl to all wells 3 hours after inoculation, and the plates were re-incubated overnight. A change in colour from blue to pink indicated the growth of bacteria. The fluorescence was read in a computer-controlled fluorometer (Cytofluor Biosearch) at an excitation wavelength of 530 nm and an emission wavelength of 590 nm. The % growth inhibition achieved by the compounds was calculated according to standard methods.
On the technique in general: Resazurin is reduced to fluorescent resorufin, in cell work by metabolically active cells.

Data set [2] deals with Streptococcus pneumoniae (ATCC6305). As to the kind of experiment: In-vitro anti-bacterial microtitre plate assay, IC90, S. pneumoniae. It is filed as cell-based. To be noted: 90% inhibitory concentration for bacterial growth, resazurin fluorescence; for IC90 values SPN 1 6305: 24 hours. The method, then: as §1
In data set [3] the test system is Mycobacterium tuberculosis (strain H37RV). As to the kind of experiment: In-vitro method for testing compounds against M. tuberculosis. To be noted: 90% inhibitory concentration for bacterial growth, 7 days, Middlebrook broth, resazurin fluorescence. Type of data set: cell-based.
The subject of data set [4] is M. Smegmatis (ATCC607). Nature of the data set: In-vitro anti-bacterial activity against strain M. smegmatis ATCC607. It is filed as cell-based. To be noted: 90% inhibitory concentration for bacterial growth, Alamar Blue fluorescence; for IC90: Mycolicibacterium smegmatis, ATCC607, 48 h, read-out: IC90 values MSM 1 ATCC607. The method, then: D.2. In-Vitro Method for Testing Compounds for Anti-Bacterial Activity Against Strain M. smegmatis ATCC607. Flat-bottom, sterile 96-well plastic microtiter plates were filled with 180 μl of sterile deionized water, supplemented with 0.25% BSA. Subsequently, stock solutions (7.8× final test concentration) of compounds were added in 45 μl volumes to a series of duplicate wells in column 2 so as to allow evaluation of their effects on bacterial growth. Serial five-fold dilutions (45 μl in 180 μl) were made directly in the microtiter plates from column 2 to 11 using a customised robot system (Zymark Corp., Hopkinton, Mass.). Pipette tips were changed after every 3 dilutions to minimize pipetting errors with high hydrophobic compounds. Untreated control samples with (column 1) and without (column 12) inoculum were included in each microtiter plate. Approximately 250 CFU per well of bacteria inoculum, in a volume of 100 μl in 2.8× Mueller-Hinton broth medium, was added to the rows […]. The same volume of broth medium without inoculum was added to column 12 in row A to H. The cultures were incubated at 37° C. for 48 hours in a humidified 5% CO2 atmosphere (incubator with open air valve and continuous ventilation). At the end of incubation, two days after inoculation, the bacterial growth was quantitated fluorometrically. Therefore Alamar Blue (10×) was added to all wells in a volume of 20 μl and plates were incubated for another 2 hours at […] The fluorescence was read in a computer-controlled fluorometer (Cytofluor, Biosearch) at an excitation wavelength of 530 nm and an emission wavelength of 590 nm (gain 30).

Data set [5] concerns Enterococcus faecalis (ATCC29212). As to the kind of experiment: In-vitro anti-bacterial microtitre plate assay, IC90, E. faecalis. To be noted: 90% inhibitory concentration for bacterial growth, resazurin fluorescence; for IC90 values EFA 29212: 24 hours. It is filed as cell-based. The method, then:
as §1

Data set [6] concerns Streptococcus pyogens (ATCC8668). As to the kind of experiment: In-vitro anti-bacterial microtitre plate assay, IC90, S. pyogens. It is filed as cell-based. To be noted: 90% inhibitory concentration for bacterial growth, resazurin fluorescence; for IC90 values SPY 8668: 24 hours. The protocol: as §1
Data set [7] concerns Pseudomonas aeruginosa (ATCC27853). Nature of the data set: In-vitro anti-bacterial microtitre plate assay, IC90, P. aeruginosa. It is filed as cell-based. Particulars: 90% inhibitory concentration for bacterial growth, resazurin fluorescence; for IC90 values PAE 27853: 24 hours. The protocol:
as §1

Data set [8] has as its system Escherichia coli (ATCC35218). As to the kind of experiment: In-vitro anti-bacterial microtitre plate assay, IC90, E. coli. It is filed as cell-based. Particulars: 90% inhibitory concentration for bacterial growth, resazurin fluorescence; for IC90: Escherichia coli, ATCC35218, 24 h, read-out: IC90 values ECO 35218. The protocol: as §1

In brackets after ≈: the same amount, converted by molar mass.

What is called IC90 is the concentration at which the effect reaches the 90% level. A word on the melting point: it is the temperature of the solid-liquid transition. With `CO/N=C/c1ccc2nc(OC)c(C(c3ccccc3)C(O)(CCN(C)C)c3cccc4ccccc34)cc2c1` (single isomer, unassigned) [Compound 25], the melting point is 228 °C. Also, the “IC90 values STA 1 B29213” value in data set [1] amounted to 8.5 µg/mL (≈ 15.9 µM). In [2], the “IC90 values SPN 1 6305” value turned out to be 2.1 µg/mL (≈ 3.94 µM). The “IC90 values MTB 1 H37RV” value in [3] stood at 1.7 µg/mL (≈ 3.19 µM). Also, in data set [4], the IC90 worked out at 0.3 µg/mL (≈ 0.562 µM). Besides, the “IC90 values EFA 29212” value in [5] stood at 8.46 µg/mL (≈ 15.9 µM). In addition, in data set [6], the “IC90 values SPY 8668” value amounted to 8.46 µg/mL (≈ 15.9 µM). The “IC90 values PAE 27853” value in [7] worked out at 8.46 µg/mL (≈ 15.9 µM). Also, the IC90 in data set [8] was found to be 53.4 µg/mL (≈ 100 µM).

Turning to `CO/N=C/c1ccc2nc(OC)c(C(c3ccccc3)C(O)(CCN(C)C)c3cccc4ccccc34)cc2c1` (single isomer, unassigned) [Compound 26], the melting point was 170 °C. Also, the “IC90 values STA 1 B29213” value in data set [1] stood at 53.4 µg/mL (≈ 100 µM). Further, in data set [2], the “IC90 values SPN 1 6305” value stood at 18.9 µg/mL (≈ 35.4 µM). Moreover, the “IC90 values MTB 1 H37RV” value in data set [3] is 8.5 µg/mL (≈ 15.9 µM). For the same molecule, the “IC90 values MSM 1 ATCC607” value in data set [4] (48 hours) was determined as 0.3 µg/mL (≈ 0.562 µM). Besides, in data set [5], the “IC90 values EFA 29212” value was found to be 53.37 µg/mL (≈ 100 µM). For the same molecule, the “IC90 values SPY 8668” value in data set [6] was determined as 53.37 µg/mL (≈ 100 µM). Also, in [7], the “IC90 values PAE 27853” value was found to be 53.37 µg/mL (≈ 100 µM). The “IC90 values ECO 35218” value in data set [8] (24 hours) amounted to 53.37 µg/mL (≈ 100 µM).

For the molecule `COc1nc2ccc(N3CCOCC3)cc2cc1C(c1ccccc1)C(O)(CCN(C)C)c1cccc2ccccc12` (single isomer, unassigned) [Compound 30], the melting point turned out to be 210 °C. Further, in data set [1] (Staphylococcus aureus, ATCC29213, 24 h, read-out: IC90 values STA 1 B29213), the IC90 was found to be 44.6 µg/mL (≈ 79.4 µM). The IC90 in data set [2] (Streptococcus pneumoniae, ATCC6305, 24 h, read-out: IC90 values SPN 1 6305) is 14.1 µg/mL (≈ 25.1 µM). The IC90 in [3] (Mycobacterium tuberculosis, H37RV, 168 h, read-out: IC90 values MTB 1 H37RV) is 8.9 µg/mL (≈ 15.8 µM). The IC90 in [4] is 0.1 µg/mL (≈ 0.178 µM). Also, in data set [5] (Enterococcus faecalis, ATCC29212, 24 h, read-out: IC90 values EFA 29212), the IC90 came to 44.6 µg/mL (≈ 79.4 µM). Further, in [6] (Streptococcus, ATCC8668, 24 h, read-out: IC90 values SPY 8668), the IC90 stood at 44.6 µg/mL (≈ 79.4 µM). Moreover, in [7] (Pseudomonas aeruginosa, ATCC27853, 24 h, read-out: IC90 values PAE 27853), the concentration for an effect of 90% (IC90) amounted to 22.4 µg/mL (≈ 39.8 µM). Further, the IC90 in data set [8] was determined as 56.2 µg/mL (≈ 100 µM).
